From PubChem BioAssay AID1918945 (Molecular Pharmacology Branch, DTP, NCI, 2023)
pIC50: −log10 of the molar value.

Tested on: 883617-216-R-J1-PDC complex spheroid viability
Test: Anticancer human tumor 883617-216-R-J1-PDC patient-derived bladder carcinoma cell line growth inhibition
Conditions: for pIC50: curve of first compound; for viability, T/C: stronger effect = lower value
Summary of the method: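 Multicellular complex spheroids of tumor cells with human endothelial cells (HUVEC) and mesenchymal stem cells; the LSD1 inhibitor iadademstat was combined with standard-of-care or investigational agents. Top concentration at or near clinical Cmax, half-log dilutions; final DMSO ≤0.25%.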

[1] = second compound 0.1 µM, first compound 0.000316 µM
[2] = second compound 0.1 µM, first compound 0.001 µM
[3] = second compound 0.1 µM, first compound 0.00316 µM
[4] = second compound 0.1 µM, first compound 0.01 µM
[5] = second compound 0.1 µM, first compound 0.0316 µM
[6] = second compound 0.1 µM, first compound 0.1 µM
[7] = second compound 0.316 µM, first compound 0.000316 µM
[8] = second compound 0.316 µM, first compound 0.001 µM
[9] = second compound 0.316 µM, first compound 0.00316 µM
[10] = second compound 0.316 µM, first compound 0.01 µM
[11] = second compound 0.316 µM, first compound 0.0316 µM
[12] = second compound 0.316 µM, first compound 0.1 µM
[13] = second compound 1 µM, first compound 0.000316 µM
[14] = second compound 1 µM, first compound 0.001 µM
[15] = second compound 1 µM, first compound 0.00316 µM
[16] = second compound 1 µM, first compound 0.01 µM
[17] = second compound 1 µM, first compound 0.0316 µM
[18] = second compound 1 µM, first compound 0.1 µM
[19] = second compound 3.16 µM, first compound 0.000316 µM
[20] = second compound 3.16 µM, first compound 0.001 µM
[21] = second compound 3.16 µM, first compound 0.00316 µM
[22] = second compound 3.16 µM, first compound 0.01 µM
[23] = second compound 3.16 µM, first compound 0.0316 µM
[24] = second compound 3.16 µM, first compound 0.1 µM
[25] = second compound 10 µM, first compound 0.000316 µM
[26] = second compound 10 µM, first compound 0.001 µM
[27] = second compound 10 µM, first compound 0.00316 µM
[28] = second compound 10 µM, first compound 0.01 µM
[29] = second compound 10 µM, first compound 0.0316 µM
[30] = second compound 10 µM, first compound 0.1 µM
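Note: exposure lasted seven days after three days of spheroid growth.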
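Throughout, for viability, T/C: 100% = DMSO vehicle control luminescence.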

| SMILES | pIC50 (second compound 0.1 µM) | pIC50 (second compound 0.316 µM) | pIC50 (second compound 1 µM) | pIC50 (second compound 3.16 µM) | pIC50 (second compound 10 µM) | viability, T/C [3] [%] | viability, T/C [4] [%] | viability, T/C [5] [%] | viability, T/C [6] [%] | viability, T/C [9] [%] | viability, T/C [10] [%] | viability, T/C [11] [%] | viability, T/C [12] [%] | viability, T/C [15] [%] | viability, T/C [16] [%] | viability, T/C [17] [%] | viability, T/C [18] [%] | viability, T/C [21] [%] | viability, T/C [22] [%] | viability, T/C [23] [%] | also measured |
| --- | --- | --- | --- | --- | --- | --- | --- | --- | --- | --- | --- | --- | --- | --- | --- | --- | --- | --- | --- | --- | --- |
| CC(C)CC(NC(=O)C(Cc1ccccc1)NC(=O)c1cnccn1)B(O)O (stereo not given) + NC1CCC(NC2CC2c2ccccc2)CC1 | 8.73 | 8.75 | 8.80 | 8.79 | 8.75 | 13.2 | 3.29 | 2.15 | 0.25 | 8.98 | 1.9 | 0.32 | 0.82 | 13.2 | 1.21 | 0.94 | 0.72 | 9.32 | 1.86 | 1.46 | viability, T/C [1]: 105%; viability, T/C [2]: 92.2%; viability, T/C [7]: 112%; viability, T/C [8]: 91.8%; viability, T/C [13]: 108%; viability, T/C [14]: 74.6%; viability, T/C [19]: 112%; viability, T/C [20]: 79.6%; viability, T/C [24]: 0.83%; viability, T/C [25]: 101%; viability, T/C [26]: 92.5%; viability, T/C [27]: 6.31%; viability, T/C [28]: 0.91%; viability, T/C [29]: 0.79%; viability, T/C [30]: 0.32% |
| CC(C)CC(NC(=O)CNC(=O)c1cc(Cl)ccc1Cl)B1OC(=O)CC(CC(=O)O)(C(=O)O)O1 (stereo not given) + NC1CCC(NC2CC2c2ccccc2)CC1 | 8.20 | 8.14 | 8.19 | 8.18 | 8.20 | 74.7 | 32.5 | 11.9 | 1.23 | 86.4 | 34.8 | 11.1 | 0.94 | 83 | 29 | 10.3 | 0.98 | 75.8 | 34.5 | 9.37 | viability, T/C [1]: 101%; viability, T/C [2]: 112%; viability, T/C [7]: 108%; viability, T/C [8]: 110%; viability, T/C [13]: 101%; viability, T/C [14]: 107%; viability, T/C [19]: 101%; viability, T/C [20]: 108%; viability, T/C [24]: 1.62%; viability, T/C [25]: 111%; viability, T/C [26]: 106%; viability, T/C [27]: 79%; viability, T/C [28]: 31.8%; viability, T/C [29]: 4.25%; viability, T/C [30]: 0.93% |
| COc1cc(Nc2ncc3c(n2)-c2ccc(Cl)cc2C(c2c(F)cccc2OC)=NC3)ccc1C(=O)O + NC1CCC(NC2CC2c2ccccc2)CC1 | < 6.00 | 6.58 | 6.49 | < 6.00 | < 6.00 | 96.2 | 77.3 | 61.3 | 53.3 | 98.6 | 81.1 | 58.7 | 53.3 | 94.8 | 75.7 | 54.6 | 49.4 | 96.1 | 83.7 | 58.8 | viability, T/C (second compound 0.1 µM, first compound 0.316 µM): 51.5%; viability, T/C (second compound 0.1 µM, first compound 1 µM): 50.7%; viability, T/C (second compound 0.316 µM, first compound 0.316 µM): 48.8%; viability, T/C (second compound 0.316 µM, first compound 1 µM): 49.1%; viability, T/C (second compound 1 µM, first compound 0.316 µM): 48.8%; viability, T/C (second compound 1 µM, first compound 1 µM): 53%; viability, T/C [24]: 50.8%; viability, T/C (second compound 3.16 µM, first compound 0.316 µM): 55.5%; viability, T/C (second compound 3.16 µM, first compound 1 µM): 56.2%; viability, T/C [27]: 93.5%; viability, T/C [28]: 75.5%; viability, T/C [29]: 65.1%; viability, T/C [30]: 58.1%; viability, T/C (second compound 10 µM, first compound 0.316 µM): 54.7%; viability, T/C (second compound 10 µM, first compound 1 µM): 51.1% |
